Data taken from patent publication US7727511B2, “Agents for imaging soluble a-beta” (priority 2003, dated 2010).
Several values for one entry are separate records, joined by “and”; a condition that tells them apart may be missing. Identical values can stand only once.

Columns and labels:
[1] = molecular target: T1, beta-amyloid 1-42 oligomer (20% biotin) (Homo sapiens, UniProt P05067); assay: SPA competition binding assay against 3H-49b on soluble oligomers; conditions: 50 uM unlabeled competitor, 130 nM 3H-49b
T1 construct: 12 μg beta-amyloid 1-42 oligomer (20% biotin); purchased Bachem H-5642; host or cells: synthetic peptide
Procedure: Lyophilized Streptavidin-Ysi beads (GE Healthcare) were reconstituted to 100 mg/mL in deioniozed water, and then further diluted in deionized water to give a suspension containing 0.25 mg/10 μl water. Unlabeled 49b and other benzofuran probes were dissolved in DMSO to give a final stock concentration of 15 mM.
For the saturation-binding assay, isotopic dilution of radiolabeled 49b with unlabeled 49b was performed. ^3H-49b was added to 500 uM of unlabeled 49b to a final concentration of 50 μCi/mL ^3H-49b. The probe solution was then serially diluted in PBS to give six solutions giving 6.6, 13.1, 26.3, 52.5, 105, or 210 uM in the final assay well. Each concentration of the probe solution was incubated with 12 μg beta-amyloid 1-42 oligomer (20% biotin) or 1-40 (20% biotin) fibrils in a total volume of 90 μl. Assays were incubated at room temp for 2 hrs before addition of 10 μL YSi-streptavidin (0.25 mg) SPA bead. Assays were set-up in triplicate in 96-well NBS plates (Costar). Assays were incubated overnight and counted the following morning. […] The specific activities of the four probes were different, however the level of activity was the same at the concentrations where the probes were tested. For this assay, 130 nM of ^3H-49b, 90 nM ^3H-cimetidine, 14 nM ^3H-caffeine, and 6 nM ^3H-AZT were tested for direct binding to 12 ug of beta-amyloid-42 oligomer (20% biotin). Assay conditions were the same as described in saturation binding assay. […]
Data analyses were performed using Sigma Plot or GraphPad Prism® version 4. Curves were fitted using non-linear regression. KD values and IC50 values were estimated from the binding curves.
For the competition binding assay between tritium-labeled 49b and various unlabeled benzofuran analogs, assays contained 130 nM ^3H-49b and 50 uM of each of the unlabeled benzofuran analogs. As controls, 10 uM and 50 uM of unlabeled 49b were included in the assays.

soluble A-beta (1-42) = molecular target: T2, soluble A-beta (1-42) (Homo sapiens, UniProt P05067); assay: Fluorescence titration assay, soluble A-beta; assay type: binding; conditions: for Kd: read-out: KD of compound to soluble A-beta (1-42)
T2 construct: 1 mg of human beta-amyloid 1-42 (H-5642, Bachem); purchased Bachem H-5642; host or cells: synthetic peptide
Procedure: A. 1 mg of human beta-amyloid 1-42 (H-5642, Bachem) and 500 uL of 1,1,1,3,3,3 hexafluoro-2-propanol (HFIP) (Aldrich) were chilled in separate bottles on ice for 30 mins. Cold beta-amyloid 1-42 was solubilized with cold HFIP. The mixture was incubated for 1 hr at room temperature until it turned clear. The resulting solution was then dried to a film under vacuum. The film was dissolved again in cold HFIP and incubated another 1 hr at room temperature. The resulting solution was separated into aliquots in several microcentrifuge tubes. HFIP was removed under vacuum, and the films were stored at −20° C. until use. To prepare soluble oligomer, the film was dissolved in appropriate amount of dry DMSO (Sigma), and Ham's F12 media (Biosource) or PBS (Sigma, D8537) was added and incubated at 4° C. for 24 hours (final concentration of 200 uM or 0.9 mg/mL beta-amyloid in 2% DMSO). The tube containing the soluble oligomers was centrifuged at 13,000 rpm for 5 mins, and its supernatant was transferred to a clean tube.
(§1) Fresh solutions of 2-4 mM probe in methanol were appropriately diluted with PBS (pH 7.4) to obtain assay solutions with final concentration range of 0.1 nM to 100 μM probe in 300-400 μL PBS (pH 7.4, 2% methanol) with 10 μM A-beta (1-40) fibrils or 6.6 μM soluble A-beta (1-42). A duplicate series of assay solutions were aliquoted with the volume of soluble A-beta or fibrils replaced by PBS. The set of solutions with probe and soluble/fibrillar A-beta and the duplicate set without A-beta were prepared and the fluorescence spectra measured in triplicate. Spectral changes in the probe's fluorescence emission spectra that were unique to the presence of A-beta indicated specific binding interactions between the probe and A-beta species. This unique spectral change allowed for the determination of the probe's binding affinity. Fluorescence emission spectra for binding affinity determinations are measured with fluorometric instrumentation known to those skilled in the art, including at least a spectrofluorometer and spectrograph. Equilibrium dissociation constants were calculated using a one-site saturation model of binding.

A-beta (1-40) fibrils = molecular target: T3, A-beta (1-40) fibrils (Homo sapiens, UniProt P05067); assay: Fluorescence titration assay, fibrils; assay type: binding; conditions: for Kd: read-out: KD of compound to insoluble A-beta (1-40) fibrils; for binding to A-beta (1-40) fibrils: fluorescence binding assays, stated in words
T3 construct: Lyophilized human beta-amyloid 1-40 peptide (Catalog number H-1194, Bachem); purchased Bachem H-1194; host or cells: synthetic peptide
Procedure: B. Insoluble A-beta (1-40) fibril formation: Lyophilized human beta-amyloid 1-40 peptide (Catalog number H-1194, Bachem) was solubilized with HFIP to produce a dry clear film following the process described above for beta-amyloid 1-42. The clear film of beta-amyloid 1-40 was diluted with distilled water to achieve a 6 mg/mL concentration. […] The clear solution was diluted to 1 mg/mL with PBS, pH 7.4 to obtain a final concentration of 1 mg/mL beta-amyloid 1-40, and then incubated at 37° C. on an orbital shaker at 200 RPM for 4 days. A cloudy solution was produced, and the fibril production was confirmed by measuring changes in fluorescence of Thioflavin T, as well as by atomic force microscopy and transmission electron microscopy. Fibrils were used immediately after their production was confirmed.
as §1

[2] = molecular target: T1, beta-amyloid 1-42 oligomer (20% biotin); assay: Scintillation proximity assay (SPA), direct/saturation binding of tritium labeled probe to soluble oligomers; conditions: 90 nM 3H-cimetidine, 14 nM 3H-caffeine, 6 nM 3H-AZT; 12 ug oligomer
Procedure: For SPA and atomic force microscopy (AFM) experiments, preparations of soluble oligomers and fibrils contained 20% biotinylated beta-amyloid 1-42 and 1-40, respectively (H-5642, H-5914, Bachem).
For the saturation-binding assay, isotopic dilution of radiolabeled 49b with unlabeled 49b was performed. ^3H-49b was added to 500 uM of unlabeled 49b to a final concentration of 50 μCi/mL ^3H-49b. The probe solution was then serially diluted in PBS to give six solutions giving 6.6, 13.1, 26.3, 52.5, 105, or 210 uM in the final assay well. Each concentration of the probe solution was incubated with 12 μg beta-amyloid 1-42 oligomer (20% biotin) or 1-40 (20% biotin) fibrils in a total volume of 90 μl. Assays were incubated at room temp for 2 hrs before addition of 10 μL YSi-streptavidin (0.25 mg) SPA bead. Assays were set-up in triplicate in 96-well NBS plates (Costar). Assays were incubated overnight and counted the following morning. […] Assay conditions were the same as described in saturation binding assay.
A direct binding assay using tritium labeled 49b was performed against oligomers or fibrils by scintillation proximity assay (SPA). Beta-amyloid containing 20% biotin and tritiated 49b were incubated in solution for two hours prior to addition of the Ysi-Streptavidin beads.

[3] = tested on: beta-amyloid in PDAPP mouse brain sections; assay: Histochemical staining on PDAPP transgenic mouse brain sections; assay type: binding; conditions: 24-month old PDAPP, carbonate extraction buffer to remove soluble material
Procedure: 3-month old and 24-month old PDAPP mouse brains were obtained from Eli Lilly (Indianapolis, Ind.). Fresh frozen 30 micron sections of the brains were fixed in 10% formalin. For 49b, or Thioflavin S staining, 1 mM stock solutions of 49b and Thioflavin S were prepared in 50% ethanol. The probes were diluted to 25 μM in 50% ethanol, and then applied onto the PDAPP brain sections. The slides were incubated in a humid chamber at room temperature for 1 hr. The slides were washed three times with PBS and mounting medium (Molecular Probes) was added. The slides were incubated at least 4-6 hours before imaging. For the carbonate pre-treatment of the brain sections, formalin-fixed sections were incubated with 100 μL of carbonate buffer containing 0.025 M sodium chloride and 0.1 M sodium carbonate for 45 mins at 37° C. The slides were washed three times with PBS, then 49b or Thioflavin S were applied on the slides as described above. Microscopic examination and imaging was performed using a Leica wide-field fluorescence microscope using filter cube A for 49b and cube E4 for Thioflavin S. Co-staining of the probes with 6E10 anti-beta-amyloid antibody in the PDAPP brain sections was described in the ex vivo assay using naïve rats.

[4] = 6.6 μM soluble A-beta (1-42), PBS pH 7.4, 2% methanol
[5] = 10 μM A-beta (1-40) fibrils, PBS pH 7.4, 2% methanol

T1 sequence (P05067 672-713 limits assumed): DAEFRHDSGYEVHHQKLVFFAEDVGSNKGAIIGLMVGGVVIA
T2 sequence (P05067 672-713 limits assumed): as above
T3 sequence (P05067 672-711 limits assumed): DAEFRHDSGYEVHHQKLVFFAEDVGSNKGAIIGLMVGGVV
Chain of beta-amyloid in PDAPP mouse brain sections (P05067 672-711 limits assumed): as above

inhibition at 50 µM [1] | Compound | further results
30% | COC(=O)[C@H](C(C)C)n1cnc(-c2ccccc2)c1-c1ccc(-c2oc3ccccc3c2CO)o1 [Compound 2c] | –
51% | N#Cc1ccc(C(O)c2ccc(-c3oc4ccccc4c3CO)o2)cc1 (stereo not shown) [Compound 6c] | –
51% | CC(=O)OCc1c(-c2ccc(C=O)o2)oc2ccccc12 [Compound 7c] | –
57% | CCOC(=O)c1ccc(C(O)c2ccc(-c3oc4ccccc4c3CO)o2)o1 (stereo not shown) [Compound 10c] | –
58% | OCc1c(-c2ccc(-c3cncn3CCF)o2)oc2ccccc12 [Compound 11c] | –

Continued, compound first:

Compound | inhibition at 50 µM [1] | further results
CC(=O)OCc1c(-c2ccc(CN3CCN(c4ccc(C#N)cc4)CC3)o2)oc2ccccc12 [Compound 1c] | 24% | –
COc1ccc(N2CCN(Cc3ccc(-c4oc5ccccc5c4COC(C)=O)o3)CC2)cc1 [Compound 3c] | 38% | –
COCCN1CCN(Cc2ccc(-c3oc4ccccc4c3COC(C)=O)o2)CC1 [Compound 4c] | 41% | –
OCc1c(-c2ccc(-c3c(-c4ccccc4)ncn3CCF)o2)oc2ccccc12 [Compound 5c] | 48% | –
CC(=O)OCc1c(-c2ccc(C(O)c3ccc(F)c(Cl)c3)o2)oc2ccccc12 (stereo not shown) [Compound 8c] | 51% | –
CC(=O)OCc1c(-c2ccc(CN3CCN(c4ccc(Cl)cc4)CC3)o2)oc2ccccc12 [Compound 9c] | 55% | –
CCOC(=O)c1ccc(C(O)c2ccc(-c3oc4ccccc4c3COC(C)=O)o2)o1 (stereo not shown) [Compound 12c] | 59% | –
CC(=O)OCc1c(-c2ccc(CN3CCN(c4ccc(C(F)(F)F)cc4)CC3)o2)oc2ccccc12 [Compound 13c] | 60% | –
CC(=O)OCc1c(-c2ccc(CN3CCN(c4ccc(C)cc4)CC3)o2)oc2ccccc12 [Compound 14c] | 60% | –
OCc1c(-c2ccc(C(O)CCC3OCCCO3)o2)oc2ccccc12 (stereo not shown) [Compound 15c] | 68% | –
COc1cc(-c2oc3ccccc3c2CO)cc(OC)c1OC [Compound 37b] | – | Kd (soluble A-beta (1-42); [4]): 22 nM and 22.8 nM; increase in fluorescence intensity (and quantum yield) with soluble A-beta (soluble A-beta (1-42); relative to compound in 2% methanol in PBS): approximately 5 times; Kd (A-beta (1-40) fibrils; [5]): > 100000 nM; binding to A-beta (1-40) fibrils (A-beta (1-40) fibrils): minimal specific binding
Cc1cc(-c2oc3ccccc3c2C(=O)c2ccccc2)ccc1F [Compound 38b] | – | KD of compound to soluble A-beta (1-42) (soluble A-beta (1-42); [4]): Nonspecific binding; binding to soluble A-beta (1-42) (soluble A-beta (1-42); fluorescence binding assays, stated in words): neither binds; KD of compound to insoluble A-beta (1-40) fibrils (A-beta (1-40) fibrils; [5]): Nonspecific binding; binding to A-beta (1-40) fibrils (A-beta (1-40) fibrils): neither binds
Cc1cc(-c2oc3ccccc3c2C)ccc1F [Compound 39b] | – | Kd (soluble A-beta (1-42); [4]): > 100000 nM; Kd (A-beta (1-40) fibrils; [5]): 1680 nM; binding to A-beta (1-40) fibrils (A-beta (1-40) fibrils): specifically binds
CN/C(=N/CCSCc1nc[nH]c1C)NC#N [cimetidine, reference compound] | – | direct binding of tritium labeled probe to soluble oligomers [2]: did not bind
Thioflavin S [reference compound] | – | staining of carbonate pre-treated brain sections [3]: staining remained
